# Measured values reported in patent US8003599B2, “Inhibitors of L1 and ADAM10 for the treatment of carcinomas” (Deutsches Krebsforschungszentrum, priority 2004, dated 2011).
# Entries after “also recorded” stand apart in the source; their conditions may differ.
# Tested on: HEK293-hL1 cells
# Assay: Haptotactic cell migration assay in Transwell chambers, HEK293-hL1 cells
# Assay type: cell-based, human
# Conditions: fibronectin, 24 h after transient transfection (FIG. 11)
# Experimental: (C) Inhibition of haptotactic cell migration in the absence or presence of the indicated mAbs to integrins at a final concentration of 10 μg/ml. FN at 10 μg/ml or BSA for control were coated onto the backside of Transwell chambers. Cells were seeded into the top chamber and allowed to transmigrate for 16 hr at 37° C. The antibody was present during the assay time. Each determination was done in quadruplicate and transmigrated cells were stained from the back of the filter. The dye was eluted from the filter and measured at 595 nm. The amount of dye is proportional to the number of transmigrated cells. Values for the migration on BSA were below 0.25 O.D. units for each cell type.
# The haptotactic cell migration assay on fibronectin, laminin or BSA was performed in Transwell chambers (Costar, 6.5 mm diameter, 5 um pore size) and was described in detail elsewhere (Mechtersheimer et al., supra). Transmigrated cells were quantified by staining of the transwell membranes with cristalviolet solution as described (Mechtersheimer at al., supra). The eluted dye was measured at 595 nm in an ELISA reader.
structure (smiles),measurement,value
COc1cccc(-c2cc(=O)c3ccccc3o2)c1N [PD59098],suppression of enhanced (L1-dependent) migration of HEK-293-hL1 wild type cells,same effect; also recorded: could block the L1-dependent migration
